Data: ChEMBL document CHEMBL3124925, “Further constituents of Galianthe thalictroides (Rubiaceae) and inhibition of DNA topoisomerases I and IIα by its cytotoxic β-carboline alkaloids” (Bioorg Med Chem Lett, 2014)
Values after ≈ are worked out from the molar mass of the structure shown. Active and inactive are the calls of the source. The rule behind the calls is not given here.

What was measured:
[1] = molecular target: DNA topoisomerase 2-alpha (Homo sapiens) (UniProt P11388); details: 100 uM
Description: Inhibition of recombinant human top2 alpha-mediated kDNA decatenation at 100 uM after 30 mins by agarose gel electrophoresis

[2] = molecular target: DNA topoisomerase 2-alpha (Homo sapiens) (UniProt P11388); experiment: Inhibition of recombinant human top2 alpha-mediated kDNA decatenation compound added post enzyme-DNA incubation by agarose gel electrophoresis
[3] = molecular target: DNA topoisomerase 2-alpha (Homo sapiens) (UniProt P11388); experiment: Inhibition of recombinant human top2 alpha-mediated kDNA decatenation compound added post enzyme-DNA incubation by agarose gel electrophoresis in presence of DTT
786-0 = experiment: Cytotoxicity against human 786-0 cells assessed as growth inhibition by SRB assay; format: functional, cell-based
MCF7 = experiment: Cytotoxicity against human MCF7 cells assessed as growth inhibition by SRB assay; format: functional, cell-based
B16-F10 = experiment: Cytotoxicity against mouse B16F10 cells assessed as growth inhibition by SRB assay; format: functional
[4] = molecular target: DNA topoisomerase 2-alpha (Homo sapiens) (UniProt P11388); experiment: Inhibition of recombinant human top2 alpha-mediated kDNA decatenation at 1 uM after 30 mins by agarose gel electrophoresis
UACC-62 = experiment: Cytotoxicity against human UACC62 cells assessed as growth inhibition by SRB assay; format: functional, cell-based
[5] = molecular target: T1, DNA topoisomerase 1 (Homo sapiens) (UniProt P11387); experiment: Inhibition of recombinant human DNA top1-mediated relaxation of pBR322 plasmid at 1 uM after 30 mins by agarose gel electrophoresis
T1 sequence (whole entry): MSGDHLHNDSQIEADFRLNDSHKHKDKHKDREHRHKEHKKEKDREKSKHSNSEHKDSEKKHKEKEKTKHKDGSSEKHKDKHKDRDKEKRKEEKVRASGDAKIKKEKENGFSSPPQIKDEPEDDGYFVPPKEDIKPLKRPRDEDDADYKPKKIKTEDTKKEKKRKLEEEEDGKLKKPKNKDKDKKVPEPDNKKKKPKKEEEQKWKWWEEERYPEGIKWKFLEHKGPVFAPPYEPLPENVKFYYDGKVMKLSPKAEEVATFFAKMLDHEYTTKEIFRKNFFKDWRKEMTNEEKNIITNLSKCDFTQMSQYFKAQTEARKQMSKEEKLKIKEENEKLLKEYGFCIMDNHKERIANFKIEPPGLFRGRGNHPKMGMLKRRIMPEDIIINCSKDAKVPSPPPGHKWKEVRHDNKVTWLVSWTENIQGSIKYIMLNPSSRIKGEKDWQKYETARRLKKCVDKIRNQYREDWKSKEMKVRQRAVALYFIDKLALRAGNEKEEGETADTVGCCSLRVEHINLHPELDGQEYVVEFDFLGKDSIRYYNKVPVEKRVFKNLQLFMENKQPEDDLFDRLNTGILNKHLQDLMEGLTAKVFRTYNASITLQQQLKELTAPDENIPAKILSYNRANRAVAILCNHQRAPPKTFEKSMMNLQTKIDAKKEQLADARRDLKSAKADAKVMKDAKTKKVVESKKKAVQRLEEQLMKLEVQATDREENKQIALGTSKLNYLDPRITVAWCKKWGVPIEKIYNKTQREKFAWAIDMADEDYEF

[6] = molecular target: DNA topoisomerase 2-alpha (Homo sapiens) (UniProt P11388); experiment: Inhibition of recombinant human top2 alpha-mediated kDNA decatenation at 25 uM after 30 mins by agarose gel electrophoresis
[7] = molecular target: T1, DNA topoisomerase 1 (Homo sapiens); experiment: Inhibition of recombinant human DNA top1-mediated relaxation of pBR322 plasmid at 25 uM after 30 mins by agarose gel electrophoresis
[8] = molecular target: T1, DNA topoisomerase 1 (Homo sapiens); experiment: Inhibition of recombinant human DNA top1-mediated relaxation of pBR322 plasmid at 100 uM after 30 mins by agarose gel electrophoresis

DNA topoisomerase 2-alpha (Homo sapiens), sequence (P11388 whole entry): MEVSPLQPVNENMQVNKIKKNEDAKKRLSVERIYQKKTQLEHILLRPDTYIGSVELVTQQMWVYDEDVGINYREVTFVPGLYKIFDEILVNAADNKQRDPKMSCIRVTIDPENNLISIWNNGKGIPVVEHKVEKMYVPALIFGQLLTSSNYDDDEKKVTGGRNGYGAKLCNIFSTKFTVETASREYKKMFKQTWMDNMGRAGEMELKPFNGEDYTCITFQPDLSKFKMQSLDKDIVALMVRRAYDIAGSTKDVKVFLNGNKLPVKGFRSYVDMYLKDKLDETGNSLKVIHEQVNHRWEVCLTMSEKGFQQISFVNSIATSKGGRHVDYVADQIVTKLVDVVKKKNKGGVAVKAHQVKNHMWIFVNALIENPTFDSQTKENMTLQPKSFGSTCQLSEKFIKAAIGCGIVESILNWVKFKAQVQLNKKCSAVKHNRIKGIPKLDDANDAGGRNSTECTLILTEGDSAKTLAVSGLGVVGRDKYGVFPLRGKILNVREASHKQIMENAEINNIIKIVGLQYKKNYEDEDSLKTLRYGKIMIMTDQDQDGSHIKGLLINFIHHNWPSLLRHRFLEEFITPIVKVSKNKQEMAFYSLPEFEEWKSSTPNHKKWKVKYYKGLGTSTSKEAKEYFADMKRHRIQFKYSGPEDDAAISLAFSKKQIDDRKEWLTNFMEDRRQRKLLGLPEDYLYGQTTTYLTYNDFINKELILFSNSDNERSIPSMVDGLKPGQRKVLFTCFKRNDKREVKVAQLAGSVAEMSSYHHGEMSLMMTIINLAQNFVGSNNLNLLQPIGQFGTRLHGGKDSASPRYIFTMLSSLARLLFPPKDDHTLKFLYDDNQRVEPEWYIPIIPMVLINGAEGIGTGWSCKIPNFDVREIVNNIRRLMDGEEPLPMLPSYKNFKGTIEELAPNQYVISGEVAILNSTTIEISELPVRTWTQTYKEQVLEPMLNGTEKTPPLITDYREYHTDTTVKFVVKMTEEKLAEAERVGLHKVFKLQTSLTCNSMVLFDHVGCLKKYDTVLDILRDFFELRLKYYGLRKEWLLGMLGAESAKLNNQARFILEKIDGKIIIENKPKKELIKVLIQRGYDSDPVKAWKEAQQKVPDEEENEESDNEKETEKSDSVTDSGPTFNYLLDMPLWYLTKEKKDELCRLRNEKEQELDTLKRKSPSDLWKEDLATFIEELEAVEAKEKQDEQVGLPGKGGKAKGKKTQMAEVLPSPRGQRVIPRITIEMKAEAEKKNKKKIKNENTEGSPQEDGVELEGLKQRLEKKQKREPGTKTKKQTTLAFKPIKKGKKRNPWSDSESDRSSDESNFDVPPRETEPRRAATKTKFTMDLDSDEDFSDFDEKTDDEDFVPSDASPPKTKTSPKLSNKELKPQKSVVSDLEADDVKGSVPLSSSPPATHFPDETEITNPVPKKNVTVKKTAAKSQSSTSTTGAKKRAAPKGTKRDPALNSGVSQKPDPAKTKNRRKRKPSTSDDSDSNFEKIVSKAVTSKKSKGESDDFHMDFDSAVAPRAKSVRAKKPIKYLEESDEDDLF

Row | SMILES | inhibition [2] | inhibition [3] | GI50 (786-0) | GI50 (MCF7) | GI50 (B16-F10) | GI50 (UACC-62) | other results
1 | COc1cc([C@@H]2c3cc4c(cc3[C@@H](O[C@@H]3O[C@@H]5CO[C@@H](C)O[C@H]5[C@H](O)[C@H]3O)[C@H]3COC(=O)[C@H]23)OCO4)cc(OC)c1O | Active | Active |  |  |  |  | inhibition [1]: Active
2 | COc1cccc2[nH]c3c([C@H]4[C@H](C(C)(C)O)CC[C@]4(C)O)nccc3c12 | Active | Active | 3 mg/L (≈ 8.46 µM) | 3 mg/L (≈ 8.46 µM) | 19.5 mg/L (≈ 55 µM) | 2.5 mg/L (≈ 7.05 µM) | inhibition [4]: Active; inhibition [5]: Active
3 | COc1cccc2[nH]c3c([C@H]4[C@H](C(C)(C)O)CC[C@@]4(O)CO)nccc3c12 | Active | Active |  |  |  |  | inhibition [6]: Active; inhibition [7]: Active; IC50 (786-0): 0.22 mg/L (≈ 0.594 µM); IC50 (MCF7): 1.8 mg/L (≈ 4.86 µM); IC50 (UACC-62): 1.7 mg/L (≈ 4.59 µM)
4 | CCc1c2c(nc3ccc(OC(=O)N4CCC(N5CCCCC5)CC4)cc13)-c1cc3c(c(=O)n1C2)COC(=O)[C@]3(O)CC |  |  |  |  |  |  | inhibition [8]: Active
5 | COc1cccc2c1C(=O)c1c(O)c3c(c(O)c1C2=O)C[C@@](O)(C(=O)CO)C[C@@H]3O[C@H]1C[C@H](N)[C@H](O)[C@H](C)O1.Cl [DOXORUBICIN HYDROCHLORIDE] |  |  | 0.43 mg/L | 0.23 mg/L | 0.22 mg/L | 0.25 mg/L | 
